Data set [1] concerns Electron Transport Chain Complex IV. As to the kind of experiment: increase of the expression of Electron Transport Chain IV (ETC IV). It is filed as cell-based. The following applies: for pEC50: increase of expression of ETC IV, read-out: EC50 on mitochondrial ETC complexes: Electron Transport Chain Complex IV. From the text: The present invention discloses a remarkable range of biological activity across the two enantiomers of epicatechin, something heretofore not described for flavonoids as a class. The enantiomer of (−)-epicatechin is (+)-epicatechin. […]

The nature of data set [2]: Effect on triglyceride level in animals on High Fat Diet. It is filed as in vivo, mice. The following applies: 15 days. Here is the method:
Animals were placed on High Fat Diet (HFD) until they gain more than 20% of Body weight compared with animals on standard chow and reached glycemia levels ≥200 mg/dL (usually 4-6 weeks). Animals were randomly assigned to Control (obese group) receiving vehicle only (by gavage): n=12; (+)-Epicatechin—orally by gavage: n=10: (−)-Epicatechin—orally by gavage: n=10.
All animals were treated for 15 days and continued under HFD. The results are presented at FIG. 3.

The nature of data set [3]: Oral pharmacokinetic study in mice, plasma LC-MS/MS. The following applies: 10 mpk, female Balb C mice. It is filed as in vivo. Here is the method:
Female Balb C mice 4 per group after overnight fasting were dosed orally (via gavage) with compound 1 in 5% NMP in normal saline (10 ml/kg). Blood was collected by serial bleeding at 0.16 hr, 0.5 hr, 1 hr, 2 hr, 4 hr, 6 hr, 8 hr in heparinized tubes. Blood samples were centrifuged at 10,000 rpm for 5 min. at 4° C. to obtain the plasma, which were aspirated into separate labeled tubes and stored at −80° C. 400 ng/ml of standard in acetonitrile was used as the drug extraction solvent for extracting drug from plasma. Extraction solvent was added to plasma was vortexed and shaken on shaker for 10 minutes, centrifuged at 10,000 rpm for 10 minutes at 4° C. Supernatant was kept for analysis.
Acetonitrile and plasma calibration curves were generated and percentage of drug recovery from plasma determined. Quantitative analysis was done by liquid chromatography tandem mass spectrometer (API3200 LC-MS/MS). Cmax, Tmax, AUC and t1/2 were calculated using Graph Pad PRISM version 5.04 and the results were depicted in Table 3.

A further data set deals with AMP kinase. As to the kind of experiment: cell-based fluorescent ELISA of AMP kinase phosphorylation status in cultured cells. The following applies: AMP kinase phosphorylation (pAMPK) in cultured cells. The method, then:
The compounds of the present invention were tested for their activity on AMP kinase. The activity on AMP kinase was evaluated by quantitative fluorescent immunoenzymatic assay of AMP kinase phosphorylation status in cultured cells. The 5-AMP-activated protein kinase (AMP kinase) is a key sensor of intracellular energy balance. AMP kinase is activated in response to an increase in the AMP/ATP ratio which can be caused by a number of factors such as muscle contraction, starvation, or hypoxia. AMP kinase is a heterotrimeric protein complex comprising of (63 kDa),—(38 kDa) and—•(38 kDa) subunits. For each subunit, isoforms have been identified (1, 2, 1, 2, 1, 2, 3) which theoretically allow the formation of 12 different proteins. The -subunit contains a serine/threonine kinase domain and the regulatory subunits contain binding sites for AMP and ATP (-subunit) and for glycogen (-subunit). AMP kinase is activated by phosphorylation on Thr-172 within the catalytic domain. AMP binding results in a 2 to 5-fold increase in AMP kinase activity compared to the basal level. […]
BioAssay Systems' cell-based ELISA measure phosphorylated AMP kinase in whole cells and normalizes the signal to the total protein content. […] AMP kinase phosphorylation (pAMPK) is measured using a fluorescent ELISA followed by total protein measurement in each well.
(In general: In an ELISA, binding on a coated surface is turned into a signal by an enzyme label.)

The text below walks through data of patent US10898465B2, “Utility of (+) epicatechin and their analogs” (Epirium Bio Inc., priority 2016, dated 2021).

Broadly, the pEC50 is −log10 of the EC50, conventionally taken in molar units. As a reminder, the AUC is concentration integrated over time.

pEC50: −log10 of the molar value. Where two headings read alike, the source gives them in different places.

In the case of `Oc1cc(O)c2c(c1)O[C@@H](c1ccc(O)c(O)c1)[C@@H](O)C2` [(+)-Epicatechin], the “fold more potent than (−)-epicatechin on increase of the expression of ETC IV” value in data set [1] ((+)-epicatechin versus (−)-epicatechin) is reported as “approximately 400 fold”. The negative logarithm of the EC50 (pEC50) in data set [1] was 7.00. The “improvement over (−)-epicatechin in dose giving the same triglyceride reduction” value in data set [2] (0.003 vs 0.1 mg/Kg/day, oral) is given as above 30 fold. Besides, the “reduction in triglyceride levels” value in data set [2] ((+)-epicatechin 0.003 mg/Kg/day vs (−)-epicatechin 0.1 mg/Kg/day, orally by gavage, FIG. 3 triglycerides content of livers) is “shows the same reduction in triglyceride levels as (−)-epicatechin”. Also, in data set [3], the exposure (AUC) was 0.683 µM·h and the “Elimination t½” value is 2.13 h.
Turning to `Oc1cc(O)c2c(c1)O[C@H](c1ccc(O)c(O)c1)[C@H](O)C2` [(−)-Epicatechin, reference compound], the pEC50 in data set [1] was 4.40.
With `CCCCCCCC(=O)Oc1cc(O)cc2c1C[C@H](O)[C@H](c1ccc(O)c(O)c1)O2` [Compound 1001, (2S,3S)-2-(3,4-dihydroxyphenyl)-3,7-dihydroxychroman-5-yl octanoate], the “concentration at which AMPK activity is exhibited” value in the data set on AMP kinase is listed as 1 nM. Moreover, the AUC in data set [3] (mouse, 10 mg/kg, read-out: AUC) turned out to be 2.8 µM·h. Further, the half-life in data set [3] (mouse, 10 mg/kg, read-out: Elimination t½ (converted)) was 4.5 h.
